# Test results taken from PMC7586456 (ACS Pharmacology & Translational Science, 2020).
# Tested on: SARS CoV-2 (USA_WA1/2020)
row,Compound,rescue of SARS-CoV-2 CPE (in words)
1,CCN1CCN(Cc2ccc(Nc3ncc(F)c(-c4cc(F)c5nc(C)n(C(C)C)c5c4)n3)nc2)CC1 [abemaciclib],"protected against SARS-CoV-2 induced CPE, but to lesser degrees than cepharanthine"
2,CC1=C[C@]23C(=O)[C@@H](C=C(CO)[C@@H](O)[C@]2(O)[C@H]1O)[C@H]1[C@@H](C[C@H]3C)C1(C)C [ingenol],"protected against SARS-CoV-2 induced CPE, but to lesser degrees than cepharanthine"
3,C=CC(=O)Nc1cc(Nc2nccc(-c3cn(C)c4ccccc34)n2)c(OC)cc1N(C)CCN(C)C [osimertinib],"protected against SARS-CoV-2 induced CPE, but to lesser degrees than cepharanthine"
4,CC(CN(C)C)CN1c2ccccc2CCc2ccccc21 (stereo not shown) [trimipramine],"protected against SARS-CoV-2 induced CPE, but to lesser degrees than cepharanthine"
